Where a SMILES comes first, the peptide text is derived from it.
What was measured:
pro-Lyb-2 cells [1] = settings: from the referenced articles; cited from earlier work
pro-Lyb-2 cells [2] = experiment: Induction assay: Lyb-2 expression (B-cell differentiation); type: cell-based, mouse; settings: 3 hr incubation; compared with natural bursopoietin at the same concentration
Description: To determine the activity and immunological characteristics of one of the subject peptide, certain related peptides prepared in the above Examples, and natural bursopoietin, an induction assay was carried out substantially as described in Audhya, et al., Proc. Natl. Acad. Sci. USA, 81,2847 (1984).
In brief, prothymocytes (Thy-1^-) and pro-Lyb-2 cells were coenriched from B6-Lyb-2.1 congenic mouse spleen by bovine serum albumin density gradient centrifugation (Path-O-Cyte 5, lot 35, 1 ml of 35/29/26/23/18/12%). The 26/23 and 23/18 interface layers were combined, and Thy-1^+ and Lyb-2^+ cells were removed by reaction with monoclonal Thy-1.2 and Lyb-2.1 antibodies prepared according to Scheid, et al., Immunogenetics, 9, 423-433 (1979), and adherence to plates coated with affinity-purified rabbit anti-mouse F(ab)2. The washed nonadherent cells were used for both assays. This starting population contained 30-40% prothymocytes and 30-40% pro-Lyb-2 cells (known to represent separate committed precursor populations) as described in Scheid, et al., J. Exp. Med., 147, 1727-1743 (1978).
Cells (5×10^6 cells per 0.5 ml of RPMI 1640 medium) were incubated in 5-ml plastic tubes with equal volumes of test compound in serial dilution in RPMI 1640 medium in a humidified 5% CO2 atmosphere for 3 hr. […]

| Compound | induction of differentiation of T-cells and B-cells (pro-Lyb-2 cells [1]) | activity in differentiation induction assay (FIG. 1) (pro-Lyb-2 cells [2]) |
| --- | --- | --- |
| ubiquitin | nonselectively induce the differentiation of both T-cells and B-cells | – |
| NCCCC[C@H](N)C(=O)N[C@@H](Cc1c[nH]cn1)C(=O)NCC(N)=O [H-LYS-HIS-GLY-NH2, L-Lysyl-L-Histidyl-Glycineamide] (H-Lys-His-Gly-NH2) | – | possessed the activity of the natural isolate |
